Experimental data as given in patent publication US20070202047A1, “Polyamine-substituted ligands for use as contrast agents” (priority 2006, published 2007).

Assays:
[1] = test system: B16 melanoma cells; test: Intracellular uptake of gadolinium complexes (ICP-MS); format: cell-based, mouse; conditions: 24-h incubation; for intracellular uptake of gadolinium complex: B16 melanoma cells, 10 μM
Method: Cell culture. B16 melanoma cells (mouse) and MH3924A Morris hepatoma cells (rat) were obtained from the German Cancer Research Center (DKFZ) tumor bank and grown at 37° C. as stock cultures in RPMI 1640 supplemented with 10% fetal calf serum and 1% glutamine as standard medium under a 5% CO2 atmosphere (all components: Pan Biotech GmbH, Aidenbach, Germany). For contrast agent uptake studies 10^6 cells were inoculated into 25 cm^2 culture flasks (BD Biosciences, Bedford, USA) and grown for 24 h in 10 mL of the standard culture medium. Cells were then incubated for an additional 24 h (1 h for temperature dependence studies) with fresh medium containing 0, 1, 2.5, 5 or 10 μM of the selected gadolinium complex (three replicate flasks for each incubation). Afterwards the medium was removed, cells were trypsinated, washed twice, resuspended in culture medium and counted (typical yields: 3.5-6 million cells). For comparison 2.5×10^5 human melanocytes (Promo Cell, Heidelberg, Germany) were incubated for 24 h with melanocyte growth medium (Promo Cell, Heidelberg, Germany) containing 0, 1, 2.5, 5 or 10 μM of the selected gadolinium complex (two replicate flasks for each incubation). The work up procedure was as described above typically yielding 2.5×10^5 cells. Cultured human hepatocytes (Cytonet GmbH, Weinheim, Germany) embedded in a collagen matrix in a 12 well microtiter plate, with 6×10^5 viable cells per well were incubated for 24 h in hepatocyte growth medium (Cytonet GmbH, Weinheim, Germany) containing the same concentration series of selected gadolinium complexes. Afterwards the medium was removed, cells were separated using collagenase (Roche Diagnostics, Mannheim, Germany). After digestion the cells were washed twice with PBS, resuspended in culture medium and counted (typical yields: 6×10^5 cells per tube). The intracellular gadolinium content was determined by ICP-MS as described below.
ICP-MS. Samples containing the above mentioned number of harvested cells were digested with 50% concentrated HNO3 (Superselect; Merck, Darmstadt, Germany) under microwave heating with a Mars 5 apparatus (CEM GmbH, Kamp-Lintfort, Germany). To each sample 100 μL of an aqueous solution of rhodium chloride (1 μg/mL) were added so that Rh-103 could be used as an internal quantification standard. Gd-160 measurements were performed with the ICP-MS instrument mentioned above. The gadolinium concentrations were determined using standard curves created prior to cell analyses. For each uptake incubation condition triplicate cell samples were analyzed, and Gd content for each sample was recorded as the mean of two MS determinations.
Intracellular Uptake of Gadolinium Complexes. B16 melanoma and MH3924A hepatoma cells as well as human melanocytes and hepatocytes were incubated for 24 h in the presence of the gadolinium complexes shown in FIG. 1, using concentrations in the range of 1-10 μM. Incubations with the unsubstituted [Gd(DTPA)(H2O)]^2−complex (Magnevist®) served as controls. Following cell harvest and hydrolysis, inductively coupled plasma mass spectrometry (ICP-MS) with direct detection of gadolinium was used to quantitate complex uptake (triplicate cultures for each incubation).
Cell Uptake Studies. A493 (human kidney), B16 melanoma cells (mouse), HeLa (human cervix), MCF-7 (human breats), MH3924A (Morris hepatoma) cells (rat) and 3T3 NIH (mouse fibroblasts) were obtained from the DKFZ tumor cell collection. 3×10^6 cells of each cell type were grown for 24 hours in culture flasks. Afterwards they were incubated for 1 hour in 10 mL culture media containing 0, 10, 50 and 100 μM of Gd-2.2. Gd-3.2 or Gd-4.2. Afterwards the medium was removed, the cells were trypsinated, washed twice, resuspended in culture medium and counted. The gadolinium uptake was determined in triplicate. […] cells were incubated with 0, 1, 2.5, 5 and 10 μM of the Gd-1.2. and Gd-5.2. for 24 h. […]

[2] = Relaxivity measurements in PBS solution; format: physicochemical; conditions: 37° C.; for longitudinal relaxation rate R1(Gd): 250 MHz (5.4 T); for molar chemical shift Δδ(Gd): H2O signal relative to external HDO; for molar chemical shift Δδ(Gd) / molar relaxivity r1: 250 MHz; for molar relaxivity r1: PBS
Method: Relaxivity Measurements. A phosphate-buffered saline (PBS, pH 7.4) reference solution and solutions of the Gd complexes Gd-3.1. (60 mM), Gd-5.1. (60 mM), and Gd-6.1. […] Each capillary was then inserted into a standard 5-mm NMR tube containing D2O (99.96% D) for ^1H relaxation rate measurements at 250 MHz (5.4 T, Bruker AC-250 spectrometer) and 37° C. using the inversion-recovery method. The relaxation rates R1 were determined by a three-parameter nonlinear least-squares fit of the intensity data to the equation M(τ)=M0[1−2q exp(−R1τ)] with 8-11 τ values. The transverse relaxation rate R2 was estimated from the H2O signal linewidth Δν at half height (R2=πΔν). The standard error of estimate for R1 was <0.7% for all samples. The relaxivities were estimated as r1 [s^−1 mM^−1]=[R1(Gd)−R1(0)]/[Gd], where [Gd] is the concentration of Gd complex in the sample with relaxation rate R1(Gd), and R1(0) is the rate for the reference sample of PBS. Analogous calculations were made for r2 from R2.
For the ^1H relaxation rate measurements at 250 MHz (5.4 T, Bruker AC-250 spectrometer) and 37° C., sample temperature was regulated to better than ±0.1° C. using the variable temperature unit of the spectrometer. The solutions studied were placed in capillaries to reduce the sample volume and the resulting intensity of the H2O signal, thus avoiding the influences of radiation damping on the relaxation behavior. The D2O solution added to the 5-mm NMR tube provided a field/frequency lock signal and residual HDO as a reference signal. An inversion-recovery pulse sequence (RD-180°-τ-90°-acquisition) was executed with a composite 180° pulse of constant phase, four-step phase cycling of the 90° pulse (7.3 μs) for four transients, and 8-11 τ values. For each sample the list of τ values was chosen after determining the approximate τnull for the “null” point of the recovery curve by trial measurements, and the delay RD was set to at least 10τnull. The resulting spectra were phase and baseline corrected manually, and the H2O signal intensity was determined by the peak picking algorithm of the NMR software.
The relaxation rates R1 were determined by a three-parameter nonlinear least-squares fit of the intensity data to the equation M(τ)=M0[1−2q exp(−R1τ)], where q was an additional fitting parameter used to account for the quality of spin inversion. The theoretical value of q is 1.0, and the fitted values were in the range 0.92-0.95. The transverse relaxation rate R2 was estimated from the H2O signal linewidth Δν at half height (R2=πΔν), and the chemical shift Δδ(Gd) of the H2O signal from the capillary relative to the HDO signal from the external D2O was determined as an additional measure of the paramagnetism of the Gd complex. The standard error of estimate for R1was <0.7% for all samples. The relaxivities were estimated as r1 […]=[R1(Gd)−R1(0)]/[Gd], where [Gd] is the concentration of Gd complex in the sample with relaxation rate R1(Gd), and R1(0) is the rate for the reference sample of PBS. Analogous calculations were made for r2 from R2 and for Δδ(Gd).

## CCN(CC)CCNC(=O)CN(CCN(CCN(CC(=O)[O-])CC(=O)N(CCN)CCN)CC(=O)[O-])CC(=O)[O-].[Gd+3] [Gd-3.1]
[1]; cell line not stated
  fold increase in intracellular accumulation versus complex of ligand 2.1: 2.87
[1]
  intracellular uptake of gadolinium complex: 0.082±0.004 fmol/cell
[2]; 60 mM in PBS
  longitudinal relaxation rate R1(Gd): 469 ± 2 s⁻¹
[2]
  molar chemical shift Δδ(Gd): 0.125 ppm mM-^−1
  molar relaxivity r1: 7.8 s⁻¹ mM⁻¹

## NCCN(CCN)C(=O)CN(CCN(CCN(CC(=O)[O-])CC(=O)N(CCN)CCN)CC(=O)[O-])CC(=O)[O-].[Gd+3] [Gd-5.1]
[1]
  intracellular uptake of gadolinium complex: 0.027±0.002 fmol/cell
[2]; 60 mM in PBS
  longitudinal relaxation rate R1(Gd): 137.9 ± 0.2 s⁻¹
[2]
  molar chemical shift Δδ(Gd): 0.045 ppm mM-^−1
  molar relaxivity r1: 2.3 s⁻¹ mM⁻¹

## NCCCCN(CCCN)C(=O)CN(CCN(CCN(CC(=O)[O-])CC(=O)N(CCCN)CCCCN)CC(=O)[O-])CC(=O)[O-].[Gd+3] [Gd-6.1]
[2]; 30 mM in PBS
  longitudinal relaxation rate R1(Gd): 194.5 ± 0.9 s⁻¹
[2]
  molar chemical shift Δδ(Gd): 0.161 ppm mM-^−1
  molar relaxivity r1: 6.5 s⁻¹ mM⁻¹
